Experimental data taken from PMC9481151, “Discovery of new symmetrical and asymmetrical nitrile-containing 1,4-dihydropyridine derivatives as dual kinases and P-glycoprotein inhibitors: synthesis, in vitro assays, and in silico studies” (Journal of Enzyme Inhibition and Medicinal Chemistry, 2022).
Values after ≈ are worked out from the molar mass of the structure shown. Read-outs that look alike come from different tables or passages of the source.

How the values were obtained:
MOLT-4 = assay: NCI single dose (10 µM) SRB screen; format: cell-based, human; conditions: leukaemia, 48 h
A549/ATCC = assay: NCI single dose (10 µM) SRB screen; format: cell-based, human; conditions: non-small cell lung cancer, 48 h
EKVX = assay: NCI single dose (10 µM) SRB screen; format: cell-based, human; conditions: non-small cell lung cancer, 48 h
HOP-62 = assay: NCI single dose (10 µM) SRB screen; format: cell-based, human; conditions: non-small cell lung cancer, 48 h
HT29 = assay: NCI single dose (10 µM) SRB screen; format: cell-based, human; conditions: colon cancer, 48 h
SW-620 = assay: NCI single dose (10 µM) SRB screen; format: cell-based, human; conditions: colon cancer, 48 h
SF-268 = assay: NCI single dose (10 µM) SRB screen; format: cell-based, human; conditions: CNS cancer, 48 h
SF-539 = assay: NCI single dose (10 µM) SRB screen; format: cell-based, human; conditions: CNS cancer, 48 h
LOX IMVI = assay: NCI single dose (10 µM) SRB screen; format: cell-based, human; conditions: melanoma, 48 h
MDA-MB-435 = assay: NCI single dose (10 µM) SRB screen; format: cell-based, human; conditions: melanoma, 48 h
SK-MEL-5 = assay: NCI single dose (10 µM) SRB screen; format: cell-based, human; conditions: melanoma, 48 h
OVCAR-8 = assay: NCI single dose (10 µM) SRB screen; format: cell-based, human; conditions: ovarian cancer, 48 h
NCI/ADR-RES = assay: NCI single dose (10 µM) SRB screen; format: cell-based, human; conditions: ovarian cancer, 48 h
A498 = assay: NCI single dose (10 µM) SRB screen; format: cell-based, human; conditions: renal cancer, 48 h
DU-145 = assay: NCI single dose (10 µM) SRB screen; format: cell-based, human; conditions: prostate cancer, 48 h
MDA-MB-231 = assay: NCI single dose (10 µM) SRB screen; format: cell-based, human; conditions: breast cancer, 48 h
[1] = test system: drug-resistant HCT-116/ADR cells; assay: Potentiation of DOX cytotoxicity (reversal DOX effect, P-gp modulation); format: cell-based, human; conditions: IC50 (DOX) without modulator / IC50 (DOX) with modulator
EGFR = EGFR (Homo sapiens, UniProt P00533); assay: EGFR kinase inhibitory activity; format: biochemical; conditions: for EGFR Potency: (IC50 lapatinib/IC50 Compound)*100; for IC50: read-out: EGFR IC50 ± SD
HER-2 = HER-2 (Homo sapiens, UniProt P04626); assay: HER-2 kinase inhibitory activity; format: biochemical; conditions: for HER-2 Potency: (IC50 lapatinib/IC50 Compound)*100; for IC50: read-out: HER-2 IC50 ± SD
BTK = BTK (Homo sapiens, UniProt Q06187); assay: BTK inhibitory activity; format: biochemical; conditions: for BTK Potency: (IC50 lapatinib/IC50 Compound)*100; for IC50: read-out: BTK IC50 ± SD
HCT-116 cells [2] = assay: Annexin V–FITC apoptosis assay; format: cell-based, human; conditions: HCT-116, 10 µM, 24 h
Description: Apoptosis induction is the most important mechanism by chemotherapeutics killing tumour cells.[62]^,[63] Phosphatidylserine (PS) is translocated from the inside to the outside of the plasma membrane during apoptosis, causing cellular alterations. Annexin-V binds to PS and can be employed as a sensitive probe on the plasma membrane’s outer side.[64]^,[65]
PS externalisation was identified using the apoptosis detection kit (Annexin V-FITC/PI) (BD Biosciences) in accordance with the manufacturer’s guidelines.[79]

HCT-116 cells [3] = assay: In vitro cell cycle analysis (DNA flow cytometry); format: cell-based, human; conditions: HCT-116, 24 h, IC50 concentrations
Method: Targeting the cancer cell cycle has been developed as a encouraging approach for cancer therapy.[66]
The cells were centrifuged, frozen in cold 75% ethanol, washed in phosphate buffered saline, resuspended with […] RNase, then stained with […] PI, and analysed with a FACS Calibur (Becton Dickinson, BD, Franklin Lakes, NJ). The cell cycle distributions were determined using Becton Dickinson’s CellQuest software version 5.1.[80]

HCT-116/ADR cells = assay: cells; conditions: Homo sapiens, HCT-116, read-out: Cytotoxicity IC50, HCT-116/ADR
HCT-116 cells [4] = assay: In vitro cytotoxicity; conditions: Homo sapiens, HCT-116, read-out: Cytotoxicity IC50, HCT-116
S. aureus = assay: MIC, two-fold microbroth dilution method; conditions: Staphylococcus aureus
B. subtilis = assay: MIC, two-fold microbroth dilution method; conditions: Bacillus subtilis
E. coli = assay: MIC, two-fold microbroth dilution method; conditions: Escherichia coli, read-out: MIC (µg/mL) E. coli
P. aeruginosa = assay: MIC, two-fold microbroth dilution method; conditions: Pseudomonas aeruginosa, read-out: MIC (µg/mL) P. aeruginosa
C. albicans = assay: MIC, two-fold microbroth dilution method; conditions: Candida albicans, read-out: MIC (µg/mL) C. albicans
A. flavus = assay: MIC, two-fold microbroth dilution method; conditions: Aspergillus flavus, read-out: MIC (µg/mL) A. flavus
[5] = read-out: MIC (µg/mL) S. aureus
[6] = read-out: MIC (µg/mL) B. subtilis

Chain of HER-2 (P04626 23-1255): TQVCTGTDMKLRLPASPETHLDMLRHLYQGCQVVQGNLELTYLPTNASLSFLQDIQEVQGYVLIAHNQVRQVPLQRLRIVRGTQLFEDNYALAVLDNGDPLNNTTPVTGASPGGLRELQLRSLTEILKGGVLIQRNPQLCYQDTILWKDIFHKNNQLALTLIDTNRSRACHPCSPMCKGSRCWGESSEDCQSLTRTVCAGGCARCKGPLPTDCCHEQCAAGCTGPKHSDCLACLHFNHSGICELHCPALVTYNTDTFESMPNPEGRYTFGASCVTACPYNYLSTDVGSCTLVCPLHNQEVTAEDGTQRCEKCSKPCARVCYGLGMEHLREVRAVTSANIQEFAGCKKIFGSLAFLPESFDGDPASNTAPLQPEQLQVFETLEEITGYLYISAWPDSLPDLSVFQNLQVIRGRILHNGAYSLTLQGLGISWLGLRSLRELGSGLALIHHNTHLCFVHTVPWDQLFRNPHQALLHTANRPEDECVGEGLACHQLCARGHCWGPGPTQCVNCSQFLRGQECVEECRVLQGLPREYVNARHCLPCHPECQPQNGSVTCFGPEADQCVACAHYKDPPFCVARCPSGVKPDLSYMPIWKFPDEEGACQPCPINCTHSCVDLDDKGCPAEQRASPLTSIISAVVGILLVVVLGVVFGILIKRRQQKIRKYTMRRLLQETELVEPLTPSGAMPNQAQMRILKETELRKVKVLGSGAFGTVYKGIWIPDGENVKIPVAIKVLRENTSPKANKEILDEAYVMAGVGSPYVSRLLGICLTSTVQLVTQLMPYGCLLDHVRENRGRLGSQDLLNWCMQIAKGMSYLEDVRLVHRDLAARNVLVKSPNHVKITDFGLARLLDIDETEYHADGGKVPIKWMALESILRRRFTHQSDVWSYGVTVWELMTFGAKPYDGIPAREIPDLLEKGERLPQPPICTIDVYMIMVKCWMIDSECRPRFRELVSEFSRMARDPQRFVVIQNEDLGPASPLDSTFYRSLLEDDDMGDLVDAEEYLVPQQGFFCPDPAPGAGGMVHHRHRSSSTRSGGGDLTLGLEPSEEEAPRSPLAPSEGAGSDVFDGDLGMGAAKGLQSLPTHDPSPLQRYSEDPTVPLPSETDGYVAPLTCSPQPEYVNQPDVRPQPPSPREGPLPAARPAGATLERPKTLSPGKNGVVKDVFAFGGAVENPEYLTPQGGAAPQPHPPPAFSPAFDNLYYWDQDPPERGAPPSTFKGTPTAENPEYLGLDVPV
Chain of BTK (Q06187 whole entry): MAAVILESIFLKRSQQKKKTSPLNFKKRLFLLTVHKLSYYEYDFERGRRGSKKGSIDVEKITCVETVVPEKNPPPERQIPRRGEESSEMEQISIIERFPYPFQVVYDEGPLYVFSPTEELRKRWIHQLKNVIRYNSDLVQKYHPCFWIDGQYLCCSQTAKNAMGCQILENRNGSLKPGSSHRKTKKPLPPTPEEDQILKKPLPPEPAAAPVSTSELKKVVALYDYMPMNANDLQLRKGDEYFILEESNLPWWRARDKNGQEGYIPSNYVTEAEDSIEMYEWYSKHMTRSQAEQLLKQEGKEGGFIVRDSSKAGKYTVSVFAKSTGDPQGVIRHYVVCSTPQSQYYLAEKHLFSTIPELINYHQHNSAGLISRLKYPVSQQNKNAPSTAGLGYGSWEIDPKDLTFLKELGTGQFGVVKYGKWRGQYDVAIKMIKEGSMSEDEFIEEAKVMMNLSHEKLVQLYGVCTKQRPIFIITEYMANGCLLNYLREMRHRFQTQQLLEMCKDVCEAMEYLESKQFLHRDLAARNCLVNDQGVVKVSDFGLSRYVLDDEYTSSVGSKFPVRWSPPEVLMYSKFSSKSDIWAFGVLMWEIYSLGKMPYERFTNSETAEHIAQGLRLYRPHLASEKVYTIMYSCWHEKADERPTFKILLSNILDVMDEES
Chain of EGFR (P00533 25-1210): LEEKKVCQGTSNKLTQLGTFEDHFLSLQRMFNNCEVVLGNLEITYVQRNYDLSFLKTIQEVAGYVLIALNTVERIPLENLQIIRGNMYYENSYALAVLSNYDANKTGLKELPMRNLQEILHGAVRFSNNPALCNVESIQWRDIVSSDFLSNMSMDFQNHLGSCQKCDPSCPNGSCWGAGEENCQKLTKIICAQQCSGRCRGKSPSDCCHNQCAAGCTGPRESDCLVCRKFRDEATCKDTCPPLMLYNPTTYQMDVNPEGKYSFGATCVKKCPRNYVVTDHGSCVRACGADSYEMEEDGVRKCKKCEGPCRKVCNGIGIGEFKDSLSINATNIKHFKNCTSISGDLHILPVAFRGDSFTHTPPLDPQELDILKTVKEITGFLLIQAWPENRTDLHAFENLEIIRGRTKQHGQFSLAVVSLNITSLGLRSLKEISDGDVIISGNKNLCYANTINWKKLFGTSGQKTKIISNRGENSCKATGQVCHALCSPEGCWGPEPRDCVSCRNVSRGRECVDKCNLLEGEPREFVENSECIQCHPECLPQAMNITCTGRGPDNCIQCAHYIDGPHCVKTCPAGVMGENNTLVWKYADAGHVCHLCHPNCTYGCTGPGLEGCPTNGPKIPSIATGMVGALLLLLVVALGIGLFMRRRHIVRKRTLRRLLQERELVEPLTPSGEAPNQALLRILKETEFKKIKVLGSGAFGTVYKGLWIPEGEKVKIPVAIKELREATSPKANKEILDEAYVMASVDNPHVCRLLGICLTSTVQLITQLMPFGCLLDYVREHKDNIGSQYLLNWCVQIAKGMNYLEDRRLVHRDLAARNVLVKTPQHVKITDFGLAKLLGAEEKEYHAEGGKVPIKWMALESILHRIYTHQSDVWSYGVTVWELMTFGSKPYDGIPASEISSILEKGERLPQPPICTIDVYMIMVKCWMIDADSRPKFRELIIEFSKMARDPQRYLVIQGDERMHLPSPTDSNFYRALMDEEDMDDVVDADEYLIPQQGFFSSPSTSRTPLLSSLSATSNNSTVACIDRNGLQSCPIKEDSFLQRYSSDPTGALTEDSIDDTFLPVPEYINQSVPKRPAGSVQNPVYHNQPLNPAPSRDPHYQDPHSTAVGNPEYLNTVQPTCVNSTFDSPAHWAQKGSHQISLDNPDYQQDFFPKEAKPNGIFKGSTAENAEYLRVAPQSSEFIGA

Row | EGFR Potency (EGFR) [%] | IC50 (EGFR) [nM] | HER-2 Potency (HER-2) [%] | SMILES | GI% MOLT-4 (MOLT-4) | GI% A549/ATCC (A549/ATCC) | GI% EKVX (EKVX) | GI% HOP-62 (HOP-62) | GI% HT29 (HT29) | GI% SW-620 (SW-620) | GI% SF-268 (SF-268) | GI% SF-539 (SF-539) | GI% LOX IMVI (LOX IMVI) | GI% MDA-MB-435 (MDA-MB-435) | GI% SK-MEL-5 (SK-MEL-5) | GI% OVCAR-8 (OVCAR-8) | GI% NCI/ADR-RES (NCI/ADR-RES) | GI% A498 (A498) [%] | GI% DU-145 (DU-145) | GI% MDA-MB-231 (MDA-MB-231) | RF (reversal fold activity) [1] | other results
1 | 72.29 | 75.2 ± 0.95 | 89.10 | CCOC(=O)C1=C(C)NC(C)=C(C(=O)OCc2ccccc2)C1c1cccc(C#N)c1 (racemic) [Compound 2l, (±)-3- Benzyl 5-ethyl 4-(3-cyanophenyl)-2,6-dimethyl-1,4-dihydropyridine-3,5-dicarboxylate] | 68% | 65% | 62% | 54% | 88% | 70% | 42% | 76% | 64% | 110% | 45% | 51% | 77% | 104 | 42% | 47% | 10.05 | IC50 (HER-2): 81.7 ± 0.92 nM; BTK Potency (BTK): 96.35%; IC50 (BTK): 63.8 ± 0.55 nM; early apoptosis ratio (lower-right quadrant) (HCT-116 cells [2]): 4.37–6.17%; late apoptosis ratio (upper-right quadrant) (HCT-116 cells [2]): 9.45–11.28%; %G0-G1 (HCT-116 cells [3]): 39.17–43.25%; %G2-M (HCT-116 cells [3]): 26.03–31.84%; %Pre-G1 (HCT-116 cells [3]): 15.57–19.36%; IC50 (HCT-116/ADR cells): 15830 ± 130 nM; IC50 (HCT-116 cells [4]): 1110 ± 450 nM
2 | 67.68 | 80.4 ± 1.26 | 95.13 | COC(=O)C1=C(C)NC(C)=C(C(=O)OCc2ccccc2)C1c1cccc(C#N)c1 (racemic) [Compound 2e, (±)-3-Benzyl 5-methyl 4-(3-cyanophenyl)-2,6-dimethyl-1,4-dihydropyridine-3,5-dicarboxylate] | 56% | 31% | 26% | 16% | 31% | 45% | 23% | 32% | 61% | 35% | 37% | 34% | 25% | 10 | 15% | 30% | 7.68 | IC50 (HER-2): 76.5 ± 0.87 nM; BTK Potency (BTK): 74.91%; IC50 (BTK): 82.1 ± 1.4 nM; early apoptosis ratio (lower-right quadrant) (HCT-116 cells [2]): 4.37–6.17%; late apoptosis ratio (upper-right quadrant) (HCT-116 cells [2]): 9.45–11.28%; %G0-G1 (HCT-116 cells [3]): 39.17–43.25%; %G2-M (HCT-116 cells [3]): 26.03–31.84%; %Pre-G1 (HCT-116 cells [3]): 15.57–19.36%; IC50 (HCT-116/ADR cells): 29400 ± 450 nM; IC50 (HCT-116 cells [4]): 1270 ± 420 nM
3 | 87.44 | 62.2 ± 0.76 | 103.20 | CC1=C(C(=O)OCc2ccccc2)C(c2cccc(C#N)c2)C(C(=O)OCc2ccccc2)=C(C)N1 [Compound 1g, Dibenzyl 4-(3-cyanophenyl)-2,6-dimethyl-1,4-dihydropyridine-3,5-dicarboxylate] | 68% | 45% | 50% | 10% | 48% | 65% | 38% | 35% | 65% | 36% | 55% | 41% | 45% | 21 | 26% | 37% | 23.48 | IC50 (HER-2): 70.55 ± 0.63 nM; BTK Potency (BTK): 101.99%; IC50 (BTK): 60.27 ± 0.42 nM; early apoptosis ratio (lower-right quadrant) (HCT-116 cells [2]): 4.37–6.17%; late apoptosis ratio (upper-right quadrant) (HCT-116 cells [2]): 9.45–11.28%; %G0-G1 (HCT-116 cells [3]): 39.17–43.25%; %G2-M (HCT-116 cells [3]): 26.03–31.84%; %Pre-G1 (HCT-116 cells [3]): 15.57–19.36%; IC50 (HCT-116/ADR cells): 10610 ± 100 nM; IC50 (HCT-116 cells [4]): 990 ± 580 nM; MIC (S. aureus; [5]): 64 µg/mL (≈ 134 µM); MIC (B. subtilis; [6]): 32 µg/mL (≈ 66.9 µM); MIC (E. coli): 32 µg/mL (≈ 66.9 µM); MIC (P. aeruginosa): 32 µg/mL (≈ 66.9 µM); MIC (C. albicans): 64 µg/mL (≈ 134 µM); MIC (A. flavus): > 64 µg/mL
4 | – | – | – | CCOC(=O)C1=C(C)NC(C)=C(C(=O)OCCOC)C1c1cccc(C#N)c1 (racemic) [Compound 2k, (±)-3-Ethyl 5-(2-methoxyethyl) 4-(3-cyanophenyl)-2,6-dimethyl-1,4-dihydropyridine-3,5-dicarboxylate] | – (Only GI% ≥ 10 are shown) | – (Only GI% ≥ 10 are shown) | – (Only GI% ≥ 10 are shown) | – (Only GI% ≥ 10 are shown) | – (Only GI% ≥ 10 are shown) | – (Only GI% ≥ 10 are shown) | – (Only GI% ≥ 10 are shown) | – (Only GI% ≥ 10 are shown) | – (Only GI% ≥ 10 are shown) | – (Only GI% ≥ 10 are shown) | – (Only GI% ≥ 10 are shown) | – (Only GI% ≥ 10 are shown) | – (Only GI% ≥ 10 are shown) | 21 | – (Only GI% ≥ 10 are shown) | – (Only GI% ≥ 10 are shown) | – | melting point: 133 to 134 °C; MIC (S. aureus; [5]): 16 µg/mL (≈ 41.6 µM); MIC (B. subtilis; [6]): 8 µg/mL (≈ 20.8 µM); MIC (E. coli): 4 µg/mL (≈ 10.4 µM); MIC (P. aeruginosa): 8 µg/mL (≈ 20.8 µM); MIC (C. albicans): 32 µg/mL (≈ 83.2 µM); MIC (A. flavus): 32 µg/mL (≈ 83.2 µM)
5 | – | – | – | COC(=O)C1=C(C)NC(C)=C(C(=O)OC(C)C)C1c1cccc(C#N)c1 (racemic) [Compound 2a, (±)-3-Isopropyl 5-methyl 4-(3-cyanophenyl)-2,6-dimethyl-1,4-dihydropyridine-3,5-dicarboxylate] | 16% | – (Only GI% ≥ 10 are shown) | – (Only GI% ≥ 10 are shown) | – (Only GI% ≥ 10 are shown) | – (Only GI% ≥ 10 are shown) | – (Only GI% ≥ 10 are shown) | – (Only GI% ≥ 10 are shown) | – (Only GI% ≥ 10 are shown) | – (Only GI% ≥ 10 are shown) | – (Only GI% ≥ 10 are shown) | – (Only GI% ≥ 10 are shown) | – (Only GI% ≥ 10 are shown) | – (Only GI% ≥ 10 are shown) | 11 | – (Only GI% ≥ 10 are shown) | – (Only GI% ≥ 10 are shown) | – | melting point: 128 to 130 °C; MIC (S. aureus; 24 h, read-out: MIC, S. aureus): 1 µg/mL (≈ 2.82 µM); MIC (S. aureus; [5]): 1 µg/mL (≈ 2.82 µM); MIC (B. subtilis; 24 h, read-out: MIC, B. subtilis): 2 µg/mL (≈ 5.64 µM); MIC (B. subtilis; [6]): 2 µg/mL (≈ 5.64 µM); MIC (E. coli): 2 µg/mL (≈ 5.64 µM); MIC (P. aeruginosa): 4 µg/mL (≈ 11.3 µM); MIC (C. albicans): 4 µg/mL (≈ 11.3 µM); MIC (A. flavus): 8 µg/mL (≈ 22.6 µM)
